Here are results for two compounds from ChEMBL document CHEMBL1201862, “PubChem BioAssay data set” (2004).

The target of assay [1] is T1, Cannabinoid receptor 2 (Homo sapiens, UniProt P34972). As to the kind of experiment: SAR analysis of antagonists of the Cannabinoid Receptor 2 using an Image-Based Assay. [Related pubchem assays (depositor defined):AID2013, AID2026]. In kind it is functional.
The target in assay [2] is T2, Corticotropin-releasing factor receptor 2/Corticotropin-releasing factor-binding protein (Homo sapiens, UniProt P24387+Q13324).
T2 sequence (Q13324 whole entry): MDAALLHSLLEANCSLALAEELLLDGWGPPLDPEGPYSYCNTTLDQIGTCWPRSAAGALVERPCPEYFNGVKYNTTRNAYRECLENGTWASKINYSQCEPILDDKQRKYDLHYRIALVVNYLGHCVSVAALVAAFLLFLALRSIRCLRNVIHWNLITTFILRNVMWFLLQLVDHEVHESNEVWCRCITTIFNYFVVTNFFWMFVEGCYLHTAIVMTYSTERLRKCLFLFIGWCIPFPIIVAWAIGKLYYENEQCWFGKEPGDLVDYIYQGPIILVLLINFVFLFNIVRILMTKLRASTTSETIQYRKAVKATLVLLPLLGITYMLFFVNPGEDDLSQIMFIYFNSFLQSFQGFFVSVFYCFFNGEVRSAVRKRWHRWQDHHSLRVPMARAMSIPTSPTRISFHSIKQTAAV
T2 sequence (P24387 whole entry): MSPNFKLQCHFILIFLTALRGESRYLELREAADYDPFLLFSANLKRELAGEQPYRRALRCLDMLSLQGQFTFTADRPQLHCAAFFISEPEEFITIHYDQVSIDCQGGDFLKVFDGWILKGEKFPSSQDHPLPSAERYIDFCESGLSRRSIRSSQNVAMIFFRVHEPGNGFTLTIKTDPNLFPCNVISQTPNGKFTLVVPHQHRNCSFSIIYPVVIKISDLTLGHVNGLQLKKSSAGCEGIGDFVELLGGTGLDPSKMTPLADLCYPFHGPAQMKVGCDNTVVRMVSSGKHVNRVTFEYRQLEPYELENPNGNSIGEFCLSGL
As to the kind of experiment: activators of CRF receptor 2 with binding protein – uHTS hits, confirmation (AID 602473). In kind it is functional. To be noted: read-out: EC50_Mean.

The target in assay [3] is T3, Cannabinoid receptor 1 (Homo sapiens, UniProt P21554). Briefly: SAR analysis of agonists of the Cannabinoid Receptor 1 using an Image-Based Assay - Set 2. [Related pubchem assays (depositor defined):AID2013, AID2026]. In kind it is functional.
T3 sequence (P21554 whole entry): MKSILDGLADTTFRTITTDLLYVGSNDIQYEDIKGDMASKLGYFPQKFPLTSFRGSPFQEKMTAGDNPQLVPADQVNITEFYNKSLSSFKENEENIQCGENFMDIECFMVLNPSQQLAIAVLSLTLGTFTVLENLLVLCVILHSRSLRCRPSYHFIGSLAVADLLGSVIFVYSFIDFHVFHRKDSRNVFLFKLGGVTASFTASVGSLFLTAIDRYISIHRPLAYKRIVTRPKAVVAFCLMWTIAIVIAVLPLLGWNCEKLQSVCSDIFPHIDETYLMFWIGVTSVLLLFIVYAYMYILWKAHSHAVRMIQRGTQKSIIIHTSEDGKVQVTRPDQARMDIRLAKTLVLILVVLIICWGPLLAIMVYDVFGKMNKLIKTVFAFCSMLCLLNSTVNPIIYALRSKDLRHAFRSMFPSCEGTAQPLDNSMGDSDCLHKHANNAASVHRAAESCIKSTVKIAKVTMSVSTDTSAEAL
Assay [4] addresses T1, Cannabinoid receptor 2. Briefly: SAR analysis of agonists of the Cannabinoid Receptor 2 using an Image-Based Assay. [Related pubchem assays (depositor defined):AID2013, AID2026]. In kind it is functional.
The target in assay [5] is T4, G-protein coupled receptor 55 (Homo sapiens, UniProt Q9Y2T6). Briefly: blockade of LPI-induced GPR55 arrestin translocation – imaging, U2OS, beta-arrestin-GFP, LPI agonist, set 2, SAR follow-up (AID 2820). In kind it is functional.
T4 sequence (Q9Y2T6 whole entry): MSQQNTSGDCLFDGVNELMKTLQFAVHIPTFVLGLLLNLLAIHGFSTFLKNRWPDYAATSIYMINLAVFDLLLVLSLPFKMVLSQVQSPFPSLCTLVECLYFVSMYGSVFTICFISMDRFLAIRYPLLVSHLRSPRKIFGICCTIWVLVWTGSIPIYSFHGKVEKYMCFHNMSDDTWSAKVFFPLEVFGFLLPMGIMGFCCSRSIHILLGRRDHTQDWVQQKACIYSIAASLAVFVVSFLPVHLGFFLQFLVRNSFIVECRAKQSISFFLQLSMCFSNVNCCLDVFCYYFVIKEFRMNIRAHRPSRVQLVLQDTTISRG
The target of assay [6] is T2, Corticotropin-releasing factor receptor 2/Corticotropin-releasing factor-binding protein. As to the kind of experiment: Dose Response confirmation of uHTS hits for small molecule antagonists of the CRF-binding protein and CRF-R2 receptor complex. In kind it is functional. To be noted: read-out: IC50_Mean.
Assay [7] deals with T4, G-protein coupled receptor 55. As to the kind of experiment: inhibition of LPI-stimulated GPR55 beta-arrestin translocation – imaging, U2OS, beta-arrestin-GFP, LPI agonist, primary screen (AID 2013).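 Note: antagonist potency measured as reduced agonist-driven arrestin aggregation.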 In kind it is functional.
The target of assay [8] is T5, G-protein coupled receptor 35 (Homo sapiens, UniProt Q9HC97). Briefly: SAR analysis of Agonists of the GPR35 Receptor using an Image-Based Assay - Set 2. [Related pubchem assays (depositor defined):AID2013, AID2026]. In kind it is functional.
T5 sequence (Q9HC97 whole entry): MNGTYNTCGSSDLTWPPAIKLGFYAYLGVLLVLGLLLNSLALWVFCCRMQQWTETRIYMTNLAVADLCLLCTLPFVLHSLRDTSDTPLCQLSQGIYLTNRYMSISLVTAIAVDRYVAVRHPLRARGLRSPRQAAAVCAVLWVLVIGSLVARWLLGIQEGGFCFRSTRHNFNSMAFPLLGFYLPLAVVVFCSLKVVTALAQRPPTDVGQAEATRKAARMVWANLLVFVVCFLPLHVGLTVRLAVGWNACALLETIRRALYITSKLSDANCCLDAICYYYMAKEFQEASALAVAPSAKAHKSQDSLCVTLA
In assay [9] the target is T5, G-protein coupled receptor 35. As to the kind of experiment: SAR analysis of Antagonists of the GPR35 Receptor using an Image-Based Assay - Set 3. [Related pubchem assays (depositor defined):AID2013, AID2026]. The assay is classed as functional.
Assay [10] has as its target T3, Cannabinoid receptor 1. Briefly: SAR analysis of antagonists of the Cannabinoid Receptor 1 using an Image-Based Assay - Set 2. [Related pubchem assays (depositor defined):AID2013, AID2026]. The assay is classed as functional.
The subject of assay [11] is Streptococcus sp. 'group A'. As to the kind of experiment: Streptococcus pyogenes SK(-)GAS viability under kanamycin – luminescence, BacTiterGlo, confirmation, counter-screen for streptokinase expression inhibitor project, dose response (AID 1900). The assay is classed as functional, organism-based.
Another assay concerns Streptococcus. Briefly: GAS UMAA2166 growth inhibition – luminescence, BacTiterGlo, counter-screen for streptokinase expression inhibitor project, dose response (AID 1915).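 Note: potency for reduction of bacterial viability or growth.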 The assay is classed as functional, organism-based. A general note: Counterscreens check selectivity or assay interference.
Another assay has as its target T6, Streptokinase A (Streptococcus pyogenes serotype M1, UniProt P10520).
T6 sequence (P10520 whole entry): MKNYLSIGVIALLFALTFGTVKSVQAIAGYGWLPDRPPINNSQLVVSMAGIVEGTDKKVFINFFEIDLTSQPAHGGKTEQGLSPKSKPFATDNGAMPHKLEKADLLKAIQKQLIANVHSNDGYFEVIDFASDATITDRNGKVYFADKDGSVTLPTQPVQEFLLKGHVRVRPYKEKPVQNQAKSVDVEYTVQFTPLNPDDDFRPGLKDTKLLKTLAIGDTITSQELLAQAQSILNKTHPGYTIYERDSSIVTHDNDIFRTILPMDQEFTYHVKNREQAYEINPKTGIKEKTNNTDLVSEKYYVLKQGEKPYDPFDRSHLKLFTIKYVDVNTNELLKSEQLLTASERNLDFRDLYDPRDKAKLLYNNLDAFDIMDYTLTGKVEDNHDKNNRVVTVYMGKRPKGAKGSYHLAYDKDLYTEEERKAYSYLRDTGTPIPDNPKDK
Briefly: viability-normalized secreted streptokinase activity reduction – plasminogen activation absorbance, OD405, dose response (AID 1914).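 Note: secreted streptokinase activity via plasminogen activation per viability signal from cell pellet.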 The assay is classed as functional, Streptococcus pyogenes M1 GAS.

Assay [12] concerns the target T7, Short transient receptor potential channel 4 (Mus musculus, UniProt Q9QUQ5).
T7 sequence (Q9QUQ5 whole entry): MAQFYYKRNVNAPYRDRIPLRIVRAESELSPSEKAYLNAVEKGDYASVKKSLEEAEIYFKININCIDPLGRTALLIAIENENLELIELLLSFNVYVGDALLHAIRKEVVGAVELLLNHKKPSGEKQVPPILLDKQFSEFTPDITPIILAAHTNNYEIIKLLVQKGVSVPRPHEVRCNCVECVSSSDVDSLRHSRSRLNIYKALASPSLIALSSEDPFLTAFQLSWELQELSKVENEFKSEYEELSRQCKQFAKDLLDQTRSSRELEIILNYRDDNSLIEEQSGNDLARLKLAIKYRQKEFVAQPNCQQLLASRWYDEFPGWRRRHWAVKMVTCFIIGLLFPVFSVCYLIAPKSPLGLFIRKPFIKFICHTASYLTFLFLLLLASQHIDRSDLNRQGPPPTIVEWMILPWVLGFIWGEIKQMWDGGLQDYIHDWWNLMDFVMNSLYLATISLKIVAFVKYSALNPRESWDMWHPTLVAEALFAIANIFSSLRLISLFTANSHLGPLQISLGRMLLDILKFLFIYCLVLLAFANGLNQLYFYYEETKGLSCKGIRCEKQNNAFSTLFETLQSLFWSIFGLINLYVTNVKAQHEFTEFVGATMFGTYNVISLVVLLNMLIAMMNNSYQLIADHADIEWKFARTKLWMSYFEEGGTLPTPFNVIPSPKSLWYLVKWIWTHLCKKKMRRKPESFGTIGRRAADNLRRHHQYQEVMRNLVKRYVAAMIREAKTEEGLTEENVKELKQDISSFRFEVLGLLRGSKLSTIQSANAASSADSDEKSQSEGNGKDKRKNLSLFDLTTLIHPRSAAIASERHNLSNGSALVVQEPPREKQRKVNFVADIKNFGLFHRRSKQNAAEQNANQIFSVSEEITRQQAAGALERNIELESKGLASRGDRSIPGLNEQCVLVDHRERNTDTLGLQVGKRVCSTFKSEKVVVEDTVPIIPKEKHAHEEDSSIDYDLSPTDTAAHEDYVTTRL
Briefly: block of DAMGO-driven TRPC4 calcium entry – cell-based, HEK293 TRPC4/mu-opioid, Fluo-4 calcium, dose response (AID 434942).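 Note: potency of inhibitors blocking the TRPC4 calcium response.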 In kind it is functional.

Calls of active or inactive are those of the source.

T1 sequence (P34972 whole entry): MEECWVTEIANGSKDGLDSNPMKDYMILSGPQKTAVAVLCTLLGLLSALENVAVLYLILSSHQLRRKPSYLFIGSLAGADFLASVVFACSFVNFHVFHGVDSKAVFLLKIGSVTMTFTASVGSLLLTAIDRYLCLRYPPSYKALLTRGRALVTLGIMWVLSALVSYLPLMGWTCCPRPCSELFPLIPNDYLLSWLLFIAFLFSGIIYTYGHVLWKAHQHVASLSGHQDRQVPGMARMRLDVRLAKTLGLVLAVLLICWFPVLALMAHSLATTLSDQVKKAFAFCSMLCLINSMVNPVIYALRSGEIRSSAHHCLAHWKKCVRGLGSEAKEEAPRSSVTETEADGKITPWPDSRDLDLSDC

For `COC(=O)C1=C(N)c2c(F)cccc2C1(C#N)c1ccccc1` (configuration not stated), the IC50 was > 32 µM (inactive) on Cannabinoid receptor 2 [1]; 0.928 µM (active) in [5]; > 47.1 µM (inactive) in assay [6]; 2.34 µM (active) in assay [7]; > 32 µM (inactive) in assay [9]; > 32 µM (inactive) at Cannabinoid receptor 1 [10]. Further, the EC50 is > 53 µM (inactive) in assay [2], > 32 µM (inactive) on Cannabinoid receptor 1 [3], > 32 µM (inactive) at Cannabinoid receptor 2 [4] and > 32 µM (inactive) in assay [8].
As for `COc1ccc(NC(=O)c2cnn3c(O)cc(C4CCN(C(=O)OC(C)(C)C)CC4)nc23)cc1Cl`, the IC50 at Cannabinoid receptor 2 [1] is > 32 µM (inactive); in [5], 0.422 µM (active); in [7], < 0.5 µM (active); in assay [9], 29.4 µM (inactive); at Cannabinoid receptor 1 [10], > 32 µM (inactive). Moreover, the EC50 is 3.36 µM (active) in [11]; > 32 µM (inactive) at Cannabinoid receptor 1 [3]; > 32 µM (inactive) at Cannabinoid receptor 2 [4]; 17.8 µM (active) in the assay on Streptococcus; > 150 µM (not active) on Streptokinase A; 1.33 µM (active) in assay [12]. Moreover, the EC50 in assay [8] is 0.506 µM (active).
